Blank lines part the entries; values can stand above or below the molecule they belong to.
Experiments:
α-1,4-glucan lyase [1] = assay: Reversible and irreversible inhibitors of the lyase; type: biochemical, Gracilariopsis lemaneiformis
α-1,4-glucan lyase [2] = assay: Effect of alcohols on activity and stability of the lyase (AF yield); type: biochemical, Gracilariopsis lemaneiformis
Experimental: 1-propanol, 2-propanol and 1-butanol were tested at the following concentrations (0%, 1%, 5% and 10%).
Ethanol was tested at the following concentrations (0, 1, 3, 5, 7, 9, 11, 13, 15%).

α-1,4-glucan lyase [3] = assay: Degradation studies: AF released by the lyase from various substrates; type: biochemical, Gracilariopsis lemaneiformis; conditions: for activity of the lyase towards maltosaccharides / degradation by the lyase: in words; for AF released: substrate 10 mg/ml, 10 mM HOAc-NaOAc pH 3.8, 40 min at 45° C., 100 ul
Experimental: Reaction conditions: The reaction mixture contained 10 mM of HOAc-NaOAc (pH 3.8). The substrate concentration was 10 mg/ml. The final volume was 100 ul after the addition of lyase and water. The reaction time was 40 min at 45° C.

[4] = Isoelectric focusing of the α-1,4-glucan lyases; type: physicochemical; conditions: isoelectrofocusing, pH gradient 3-9
Excerpt: The relative migration rates were estimated from native PAGE on gels with 8-25% gradient; the pI values were estimated by isoelectrofocusing on gels with a pH gradient of 3-9.
FIG. 2. Isoelectric focusing of the α-1,4-glucan lyases on a gel with a pH gradient of pH 3 to pH 9. The gel was stained with PhastGel Blue R.

Molecule: 1-butanol
increase of AF yield (α-1,4-glucan lyase [2]; optimal concentration 5%, after 3-day incubation): 52%

Molecule: CCO [Ethanol]
increase of AF yield (α-1,4-glucan lyase [2]; optimal concentration 3%, 10 days incubation): 16%
increase of AF yield (α-1,4-glucan lyase [2]; optimal concentration 5%, 7 days incubation): 12%

Molecule: Maltopentaose
activity of the lyase towards maltosaccharides (α-1,4-glucan lyase [3]): highest activity
AF released (α-1,4-glucan lyase [3]): 674 nmol

Molecule: O=C(O)c1cc[c]([Hg][Cl])cc1 [PCMB, p-chloromercuribenzoic acid]
decrease of lyase activity (α-1,4-glucan lyase [1]; 2 mM PCMB, same assay conditions as for deoxyjirimycin (substrate 2% amylopectin)): 60%
inhibition of the lyase activity (α-1,4-glucan lyase [1]; final concentration 2 mM PCMB): 96%

Molecule: CC(C)O [2-propanol]
increase of AF yield (α-1,4-glucan lyase [2]; optimal concentration 1%, after 10 days incubation): 20%

Molecule: OCC1OC(OC2C(CO)OC(OC3C(CO)OC(O)C(O)C3O)C(O)C2O)C(O)C(O)C1O (stereo not shown) [Maltotriose]
activity of the lyase towards maltosaccharides (α-1,4-glucan lyase [3]): lower activity
AF released (α-1,4-glucan lyase [3]): 654 nmol

Molecule: OC[C@H]1O[C@H](O[C@H]2[C@H](O)[C@@H](O)[C@@H](O[C@H]3[C@H](O)[C@@H](O)[C@@H](O[C@H]4[C@H](O)[C@@H](O)C(O)O[C@@H]4CO)O[C@@H]3CO)O[C@@H]2CO)[C@H](O)[C@@H](O)[C@@H]1O (stereo partly shown) [Maltotetraose]
activity of the lyase towards maltosaccharides (α-1,4-glucan lyase [3]): highest activity
AF released (α-1,4-glucan lyase [3]): 670 nmol

Molecule: Maltoheptaose
activity of the lyase towards maltosaccharides (α-1,4-glucan lyase [3]): lower activity
AF released (α-1,4-glucan lyase [3]): 865 nmol

Molecule: Maltohexaose
AF released (α-1,4-glucan lyase [3]): 826 nmol

Molecule: 1-propanol
AF yield (α-1,4-glucan lyase [2]; 1% (v/v), reaction time 1 day): 80 µmol
AF yield (α-1,4-glucan lyase [2]; 1% (v/v), reaction time 3 days): 280 µmol
AF yield (α-1,4-glucan lyase [2]; 1% (v/v), reaction time 6 days): 530 µmol
AF yield (α-1,4-glucan lyase [2]; 1% (v/v), reaction time 10 days): 803 µmol
AF yield (α-1,4-glucan lyase [2]; 5% (v/v), reaction time 1 day): 115 µmol
AF yield (α-1,4-glucan lyase [2]; 5% (v/v), reaction time 3 days): 367 µmol
AF yield (α-1,4-glucan lyase [2]; 5% (v/v), reaction time 6 days): 605 µmol
AF yield (α-1,4-glucan lyase [2]; 5% (v/v), reaction time 10 days): 853 µmol
AF yield (α-1,4-glucan lyase [2]; 10% (v/v), reaction time 1 day): 107 µmol
AF yield (α-1,4-glucan lyase [2]; 10% (v/v), reaction time 3 days): 307 µmol
AF yield (α-1,4-glucan lyase [2]; 10% (v/v), reaction time 6 days): 456 µmol
AF yield (α-1,4-glucan lyase [2]; 10% (v/v), reaction time 10 days): 583 µmol
increase of AF yield (α-1,4-glucan lyase [2]; optimal concentration 5%, after 6 days of incubation): 34%

B1: MC-lyase: lyase isolated from the fungus Morchella costata, ATCC (protein)
chain: MAGFSDPLNFCKAEDYYSVALDWKGPQKIIGVDTTPPKSTKFPKNWHGVNLRFDDGTLGVVQFIRPCVWRVRYDPGFKTSDEYGDENTRTIVQDYMSTLSNKLDTYRGLTWETKCEDSGDFFTFSSKVTAVEKSERTRNKVGDGLRIHLWKSPFRIQVVRTLTPLKDPYPIPNVAAAEARVSDKVVWQTSPKTFRKNLHPQHKMLKDTVLDIVKPGHGEYVGWGEMGGIQFMKEPTFMNYFNFDNMQYQQVYAQGALDSREPLYHSDPFYLDVNSNPEHKNITATFIDNYSQIAIDFGKTNSGYIKLGTRYGGIDCYGISADTVPEIVRLYTGLVGRSKLKPRYILGAHQACYGYQQESDLYSVVQQYRDCKFPLDGIHVDVDVQDGFRTFTTNPHTFPNPKEMFTNLRNNGIKCSTNITPVISINNREGGYSTLLEGVDKKYFIMDDRYTEGTSGNAKDVRYMYYGGGNKVEVDPNDVNGRPDFKDNYDFPANFNSKQYPYHGGVSYGYGNGSAGFYPDLNRKEVRIWWGMQYKYLFDMGLEFVWQDMTTPAIHTSYGDMKGLPTRLLVTSDSVTNASEKKLAIETWALYSYNLHKATWHGLSRLESRKNKRNFILGRGSYAGAYRFAGLWTGDNASNWEFWKISVSQVLSLGLNGVCIAGSDTGGFEPYRDANGVEEKYCSPELLIRWYTGSFLLPWLRNHYVKKDRKWFQEPYSYPKHLETHPELADQAWLYKSVLEICRYYVELRYSLIQLLYDCMFQNVVDGMPITRSMLLTDTEDTTFFNESQKFLDNQYMAGDDILVAPILHSRKEIPGENRDVYLPLYHTWYPSNLRPWDDQGVALGNPVEGGSVINYTARIVAPEDYNLFHSVVPVYVREGAIIPQIEVRQWTGQGGANRIKFNIYPGKDKEYCTYLDDGVSRDSAPEDLPQYKETHEQSKVEGAEIAKQIGKKTGYNISGTDPEAKGYHRKVAVTQTSKDKTRTVTIEPKHNGYDPSKEVGDYYTIILWYAPGFDGSIVDVSKTTVNVEGGVEHQVYKNSDLHTVVIDVKEVIGTTKSVKITCTAA
pI [4]: 4.5

B2: GLsc1-lyase: lyase purified from Gracilariopsis lemaneiformis collected in Santa Cruz, Calif. (protein)
chain: TALSDKQTAISIGPDNPDGINYQNYDYIPVAGFTPLSNTNWYAAGSSTPGGITDWTATMNVKFDRIDNPSYSNNHPVQIQVTSYNNNSFRIRFNPDGPIRDVSRGPILKQQLTWIRNQELAQGCNPNMSFSPEGFLSFETKDLNVIIYGNCKMRVTKKDGYLVMENDECNSQSDGNKCRGLMYVDRLYGNAIASVQTNFHKDTSRNEKFYGAGEVNCRYEEQGKAPTYVLERSGLAMTNYNYDNLNYNQPDVVPPGYPDHPNYYIPMYYAAPWLVVQGCAGTSKQYSYGWFMDNVSQSYMNTGDTAWNCGQENLAYMGAQYGPFDQHFVYGDGDGLEDVVKAFSFLQGKEFEDKKLNKRSVMPPKYVFGFFQGVFGALSLLKQNLPAGENNISVQEIVEGYQDNDYPFEGLAVDVDMQDDLRVFTTKPEYWSANMVGEGGDPNNRSVFEWAHDRGLVCQTNVTCFLRNDNSGKPYEVNQTLREKQLYTKNDSLNNTDFGTTSDGPGDAYIGHLDYGGGVECDAIFPDWGRPDVAQWWGENYKKLFSIGLDFVWQDMTVPAMMPHRLGDAVNKNSGSSAPGWPNENDPSNGRYNWKSYHPQVLVTDMRYGAEYGREPMVSQRNIHAYTLCESTRREGIVGNADSLTKFRRSYIISRGGYIGNQHFGGMWVGDNSATESYLQMMLANIINMNMSCLPLVGSDIGGFTQYNDAGDPTPEDLMVRFVQAGCLLPWFRNHYDRWIESKKHGKKYQELYMYPGQKDTLKKFVEFRYRWQEVLYTAMYQNATTGEPIIKAAPMYNNDVNVYKSQNDHFLLGGHDGYRILCAPVVRENATSREVYLPVYSKWFKFGPDFDTKPLENEIQGGQTLYNYAAPLNDSPIFVREGTILPTRYTLDGVNKSINTYTDNDPLVFELFPLENNQAHGLFYHDDGGVTTNAEDFGKYSVISVKAAQEGSQMSVKFDNEVYEHQWGASFYVRVRNMGAPSNINVSSQIGQQDMQQSSVSSRAQMFTSANDGEYWVDQSTNSLWLKLPGAVIQDAAITVR
pI [4]: 4.1

B3: GLsc2-lyase: second lyase purified from Gracilariopsis lemaneiformis collected in Santa Cruz, Calif. (protein)
chain: B2 chain
pI [4]: 4.1

Continued, values first:

remaining lyase activity (α-1,4-glucan lyase [1]; 25 μM inhibitor, substrate amylopectin 2%, algal lyase): 10.4%
lyase activity (α-1,4-glucan lyase [1]; 100 μM inhibitor, substrate amylopectin 2%): completely lost
Molecule: OC[C@H]1NC[C@H](O)[C@@H](O)[C@@H]1O [deoxyjirimycin]

degradation by the lyase (α-1,4-glucan lyase [3]): not able to degrade
Molecule: OC[C@H]1O[C@@H]2O[C@H]3[C@H](O)[C@@H](O)[C@@H](O[C@H]4[C@H](O)[C@@H](O)[C@@H](O[C@H]5[C@H](O)[C@@H](O)[C@@H](O[C@H]6[C@H](O)[C@@H](O)[C@@H](O[C@H]7[C@H](O)[C@@H](O)[C@@H](O[C@H]8[C@H](O)[C@@H](O)[C@@H](O[C@H]1[C@H](O)[C@H]2O)O[C@@H]8CO)O[C@@H]7CO)O[C@@H]6CO)O[C@@H]5CO)O[C@@H]4CO)O[C@@H]3CO [β-cyclodextrins]

degradation by the lyase (α-1,4-glucan lyase [3]): not able to degrade
Molecule: nigeran tetrasaccharide

degradation by the lyase (α-1,4-glucan lyase [3]): slow rate
Molecule: OC[C@H]1O[C@H](O[C@H]2[C@H](O)[C@@H](CO)OC(O)[C@@H]2O)[C@H](O)[C@@H](O)[C@@H]1O (stereo partly shown) [nigerose]

degradation by the lyase (α-1,4-glucan lyase [3]): slow rate
Molecule: panose

degradation by the lyase (α-1,4-glucan lyase [3]): not able to degrade
Molecule: OC[C@H]1O[C@H](O[C@H]2O[C@H](CO)[C@@H](O)[C@H](O)[C@H]2O)[C@H](O)[C@@H](O)[C@@H]1O [trehalose]

degradation by the lyase (α-1,4-glucan lyase [3]): not able to degrade
Molecule: OC[C@H]1O[C@H](OC[C@H]2OC(O)[C@H](O)[C@@H](O)[C@@H]2O)[C@H](O)[C@@H](O)[C@@H]1O (stereo partly shown) [isomaltose]

degradation by the lyase (α-1,4-glucan lyase [3]): not able to degrade
Molecule: pullulan

Reference: patent US6541237B1, “A-1,4-glucan lyase and its use in the production of 1.5-androfructose” (Danisco A/S, priority 1994, dated 2003)
